In ChEMBL document CHEMBL5370616, “Novel Nitric Oxide Donor-Azole Conjugation Strategy for Efficient Treatment of Cryptococcus neoformans Infections” (J Med Chem, 2023):
Converted amounts (≈) assume the structure as drawn. The source made the active and inactive calls. The calls are words filed in the database; no cut-off is given here.

Experiments:
[1] = tested on: Nakaseomyces glabratus; assay: Antifungal activity against Candida glabrata 10639 assessed as reduction in fungal growth incubated for 48 hrs by CLSI protocol based microplate reader analysis; format: functional
[2] = tested on: Cryptococcus neoformans; assay: Antifungal activity against Cryptococcus neoformans H99 assessed as reduction in number of colonies at 0.125 to 1 ug/ml incubated for 72 hrs by agar disk diffusion assay; format: functional; settings: dose 0.125-1 µg/ml
[3] = tested on: Cryptococcus neoformans; assay: Disruption of preformed mature biofilm in Cryptococcus neoformans H99 assessed as removal of mature biofilm at 0.125 to 32 ug/ml incubated for 24 hrs by XTT reduction assay; format: functional, organism-based; settings: dose 0.125-32 µg/ml
[4] = tested on: Cryptococcus neoformans; assay: Antifungal activity against Cryptococcus neoformans H99 assessed as reduction in fungal growth at 4 ug/ml incubated upto 72 hrs by microplate reader analysis; format: functional, organism-based; settings: dose 4.0 µg/ml
[5] = tested on: Cryptococcus neoformans; assay: Antifungal activity against Cryptococcus neoformans H99 assessed as change in internal microstructure by observing cell membrane damage at 4 ug/ml incubated for 8 hrs by TEM analysis; format: functional, organism-based; settings: dose 4.0 µg/ml
[6] = tested on: Cryptococcus neoformans; assay: Inhibition of CYP51 in Cryptococcus neoformans H99 assessed as decrease in unknown sterol level at 4 ug/ml incubated for 24 hrs by GC-MS analysis (Rvb= 22.95%); settings: dose 4.0 µg/ml
[7] = tested on: Cryptococcus neoformans; assay: Inhibition of CYP51 in Cryptococcus neoformans H99 assessed as increase in lanosterol level at 4 ug/ml incubated for 24 hrs by GC-MS analysis (Rvb= 6.24%); settings: dose 4.0 µg/ml
[8] = tested on: Candida albicans; assay: Antifungal activity against Candida albicans SC5314 assessed as reduction in fungal growth incubated for 48 hrs by CLSI protocol based microplate reader analysis; format: functional
[9] = tested on: Cryptococcus neoformans; assay: Inhibition of CYP51 in Cryptococcus neoformans H99 assessed as reduction in ergosterol level at 4 ug/ml incubated for 24 hrs by GC-MS analysis (Rvb= 58.33%); settings: dose 4.0 µg/ml
[10] = tested on: Cryptococcus neoformans; assay: Antifungal activity against Cryptococcus neoformans H99 assessed as change in internal microstructure by observing sparse capsule at 4 ug/ml incubated for 8 hrs by TEM analysis; format: functional, organism-based; settings: dose 4.0 µg/ml
[11] = tested on: Cryptococcus neoformans; assay: Antifungal activity against Cryptococcus neoformans H99 assessed as reduction in fungal growth incubated for 72 hrs by CLSI protocol based microplate reader analysis; format: functional
[12] = tested on: Candida albicans; assay: Antifungal activity against Candida albicans 0304103 assessed as reduction in fungal growth incubated for 48 hrs by CLSI protocol based microplate reader analysis; format: functional
[13] = tested on: Cryptococcus neoformans; assay: Inhibition of CYP51 in Cryptococcus neoformans H99 assessed as increase in other unknown sterol level at 4 ug/ml incubated for 24 hrs by GC-MS analysis (Rvb= 12.49%); settings: dose 4.0 µg/ml
[14] = tested on: Cryptococcus neoformans; assay: In vivo antifungal activity against Cryptococcus neoformans H99 infected in cryptococcal meningitis ICR mouse model assessed as reduction in fungal burden in lung at 10 mg/kg,INH QD for 5 days by CFU assay; format: functional, organism-based; settings: time 5.0 day
[15] = tested on: Cryptococcus neoformans; assay: In vivo antifungal activity against Cryptococcus neoformans H99 infected in cryptococcal meningitis ICR mouse model assessed as reduction in fungal burden in brain at 10 mg/kg,INH QD for 5 days by CFU assay; format: functional, organism-based; settings: time 5.0 day
[16] = tested on: Cryptococcus neoformans; assay: In vivo antifungal activity against Cryptococcus neoformans H99 infected in cryptococcal meningitis ICR mouse model assessed as reduction in blood vessel congestion at 10 mg/kg,INH QD for 5 days by H and E staining based microscopic analysis; format: functional, organism-based; settings: time 5.0 day
[17] = Metabolic stability in Sprague-Dawley rat plasma assessed as parent compound remaining at 500 uM and measured upto 120 mins by HPLC analysis; format: ADME, cell-free; settings: 2 h
[18] = tested on: Cryptococcus neoformans; assay: In vivo antifungal activity against Cryptococcus neoformans H99 infected in cryptococcal meningitis ICR mouse model assessed as reduction in organism brain invasion at 10 mg/kg,INH QD for 5 days by PAS staining based microscopic analysis; format: functional; settings: time 5.0 day
[19] = tested on: Cryptococcus neoformans; assay: In vivo antifungal activity against Cryptococcus neoformans H99 infected in cryptococcal meningitis ICR mouse model assessed as reduction in irregular cavities in brain at 10 mg/kg,INH QD for 5 days by H and E staining based microscopic analysis; format: functional, organism-based; settings: time 5.0 day
[20] = tested on: Cryptococcus neoformans; assay: In vivo antifungal activity against Cryptococcus neoformans H99 infected in cryptococcal meningitis ICR mouse model assessed as reduction in neuronal necrosis at 10 mg/kg,INH QD for 5 days by H and E staining based microscopic analysis; format: functional, organism-based; settings: time 5.0 day
[21] = Metabolic stability in Sprague-Dawley rat liver microsomes assessed as parent compound remaining at 200 uM and measured upto 120 mins by HPLC analysis; format: ADME, Microsome; settings: 2 h
[22] = tested on: Cryptococcus neoformans; assay: Inhibition of biofilm formation in Cryptococcus neoformans H99 at 0.25 ug/ml incubated for 24 hrs by XTT reduction assay; format: functional
[23] = tested on: Cryptococcus neoformans; assay: Disruption of preformed mature biofilm in Cryptococcus neoformans H99 assessed as removal of mature biofilm at 0.125 to 32 ug/ml incubated for 24 hrs in presence of 2-phenyl-4,4,5,5-tetramethylimidazoline-l-oxyl 3-oxide by XTT reduction assay; format: functional, organism-based; settings: dose 0.125-32 µg/ml
[24] = tested on: Cryptococcus neoformans; assay: Fungicidal activity against Cryptococcus neoformans H99 assessed as reduction in colony forming units at 8 ug/ml incubated upto 72 hrs by time-kill assay; format: functional; parameters: scale not given: the % may be the effect or the level left; settings: dose 8 µg/ml
[25] = tested on: Cryptococcus neoformans; assay: Fungicidal activity against Cryptococcus neoformans H99 assessed as cell death by measuring red fluorescence at 8 ug/ml incubated for 12 hrs by PI staining based confocal laser scanning microscopy; format: functional, organism-based; settings: dose 8.0 µg/ml
[26] = tested on: Cryptococcus neoformans; assay: Disruption of preformed mature biofilm in Cryptococcus neoformans H99 assessed as removal of mature biofilm at 0.125 ug/ml incubated for 24 hrs by XTT reduction assay; format: functional; parameters: scale not given: the % may be the effect or the level left; settings: dose 0.125 µg/ml
[27] = tested on: Cryptococcus neoformans; assay: Antifungal activity against Cryptococcus neoformans H99 assessed as reduction in urease production at 8 ug/ml by microplate analysis; format: functional, organism-based; settings: dose 8.0 µg/ml
[28] = tested on: Cryptococcus neoformans; assay: Disruption of preformed mature biofilm in Cryptococcus neoformans H99 assessed as removal of mature biofilm at 32 ug/ml incubated for 24 hrs by XTT reduction assay; format: functional; parameters: scale not given: the % may be the effect or the level left; settings: dose 32 µg/ml
[29] = tested on: Cryptococcus neoformans; assay: Inhibition of CYP51 in Cryptococcus neoformans H99 assessed as reduction in ergosterol level at 0.125 ug/ml incubated for 24 hrs by GC-MS analysis (Rvb= 58.33%); settings: dose 0.125 µg/ml
[30] = tested on: Cryptococcus neoformans; assay: Antifungal activity against Cryptococcus neoformans H99 assessed as reduction in fungal growth at 0.25 to 8 ug/ml incubated upto 72 hrs by microplate reader analysis; format: functional, organism-based; settings: dose 0.25-8 µg/ml
[31] = Drug metabolism in Cryptococcus neoformans H99 assessed as NO release by measuring green fluorescence at 8 ug/ml incubated for 12 hrs by DAF-FM DA staining based confocal laser scanning microscopy; format: ADME; settings: dose 8 µg/ml
[32] = tested on: Cryptococcus neoformans; assay: Antifungal activity against Cryptococcus neoformans H99 assessed as reduction in melanin production at 32 ug/ml by microplate analysis; format: functional, organism-based; settings: dose 32.0 µg/ml
[33] = tested on: Cryptococcus neoformans; assay: Inhibition of CYP51 in Cryptococcus neoformans H99 assessed as increase in lanosterol level at 0.125 ug/ml incubated for 24 hrs by GC-MS analysis (Rvb= 6.24%); settings: dose 0.125 µg/ml
[34] = tested on: Cryptococcus neoformans; assay: Inhibition of CYP51 in Cryptococcus neoformans H99 assessed as decrease in unknown sterol level at 0.125 ug/ml incubated for 24 hrs by GC-MS analysis (Rvb= 22.95%); settings: dose 0.125 µg/ml
[35] = tested on: Cryptococcus neoformans; assay: Inhibition of CYP51 in Cryptococcus neoformans H99 assessed as increase in other unknown sterol level at 0.125 ug/ml incubated for 24 hrs by GC-MS analysis (Rvb= 12.49%); settings: dose 0.125 µg/ml
[36] = tested on: Cryptococcus neoformans; assay: Antifungal activity against Cryptococcus neoformans H99 assessed as reduction in urease production at 4 ug/ml by microplate analysis; format: functional, organism-based; settings: dose 4.0 µg/ml
[37] = tested on: Cryptococcus neoformans; assay: In vivo antifungal activity against Cryptococcus neoformans H99 infected in cryptococcal meningitis ICR mouse model assessed as reduction in fungal burden in brain at 1 mg/kg,INH QD for 5 days by CFU assay; format: functional, organism-based; settings: time 5.0 day
[38] = tested on: Cryptococcus neoformans; assay: In vivo antifungal activity against Cryptococcus neoformans H99 infected in cryptococcal meningitis ICR mouse model assessed as reduction in fungal burden in lung at 1 mg/kg,INH QD for 5 days by CFU assay; format: functional, organism-based; settings: time 5.0 day
[39] = tested on: Cryptococcus neoformans; assay: Inhibition of biofilm formation in Cryptococcus neoformans H99 at 0.25 ug/ml incubated for 24 hrs in presence of 2-phenyl-4,4,5,5-tetramethylimidazoline-l-oxyl 3-oxide by XTT reduction assay; format: functional, organism-based; settings: dose 0.25 µg/ml
[40] = tested on: Cryptococcus neoformans; assay: Antifungal activity against Cryptococcus neoformans H99 assessed as reduction in melanin production at 16 ug/ml by microplate analysis; format: functional, organism-based; settings: dose 16.0 µg/ml
[41] = tested on: Cryptococcus neoformans; assay: Antifungal activity against Cryptococcus neoformans H99 assessed as change in internal microstructure by observing sparse capsule at 0.125 to 4 ug/ml incubated for 8 hrs by TEM analysis; format: functional, organism-based; settings: dose 0.125-4 µg/ml
[42] = tested on: Cryptococcus neoformans; assay: In vivo antifungal activity against Cryptococcus neoformans H99 infected in cryptococcal meningitis ICR mouse model assessed as reduction in organism brain invasion at 1 mg/kg,INH QD for 5 days by PAS staining based microscopic analysis; format: functional; settings: time 5.0 day
[43] = tested on: Cryptococcus neoformans; assay: In vivo antifungal activity against Cryptococcus neoformans H99 infected in cryptococcal meningitis ICR mouse model assessed as reduction in irregular cavities in brain at 1 mg/kg,INH QD for 5 days by H and E staining based microscopic analysis; format: functional, organism-based; settings: time 5.0 day
[44] = tested on: Cryptococcus neoformans; assay: In vivo antifungal activity against Cryptococcus neoformans H99 infected in cryptococcal meningitis ICR mouse model assessed as reduction in neuronal necrosis at 1 mg/kg,INH QD for 5 days by H and E staining based microscopic analysis; format: functional, organism-based; settings: time 5.0 day
[45] = tested on: Cryptococcus neoformans; assay: In vivo antifungal activity against Cryptococcus neoformans H99 infected in cryptococcal meningitis ICR mouse model assessed as reduction in blood vessel congestion at 1 mg/kg,INH QD for 5 days by H and E staining based microscopic analysis; format: functional, organism-based; settings: time 5.0 day
[46] = tested on: Cryptococcus neoformans; assay: Antifungal activity against Cryptococcus neoformans H99 assessed as change in internal microstructure by observing cell membrane damage at 0.125 to 4 ug/ml incubated for 8 hrs by TEM analysis; format: functional, organism-based; settings: dose 0.125-4 µg/ml

SMILES	MIC80 [1]	MIC80 [8]	MIC80 [11]	MIC80 [12]	Stability [17]	Stability [21]	inhibition at 0.25 µg/mL [22]	Activity [23]	Activity [24]	Activity [25]	Activity [26]	Activity ([2]; at 0.125 to 1 µg/mL)	Activity [28]	inhibition [29]	Activity [30]	Drug metabolism [31]	inhibition [33]	inhibition [34]	inhibition [35]	further results
OC(Cn1cncn1)(Cn1cncn1)c1ccc(F)cc1F [FLUCONAZOLE]	2 µg/mL (≈ 6.53 µM)	0.5 µg/mL (≈ 1.63 µM)	2 µg/mL (≈ 6.53 µM)	> 64 µg/mL																Activity [2]: inactive; Activity [3]: inactive; Activity [4]: inactive; Activity [5]: Active; inhibition [6]: 5.55%; inhibition [7]: 53.9%; inhibition [9]: 19.2%; Activity [10]: inactive; inhibition [13]: 21.4%
CN(Cc1ccc(OCCCOc2ccc(CC(=O)NCCO[N+](=O)[O-])cc2)cc1)CC(O)(Cn1cncn1)c1ccc(F)cc1F (centres undefined)	1 µg/mL (≈ 1.53 µM)	1 µg/mL (≈ 1.53 µM)	0.125 µg/mL (≈ 0.191 µM)	> 64 µg/mL	Stable	Stable														Activity [14]: inactive; Activity [15]: Active; Activity [16]: Active; Activity [18]: Active; Activity [19]: Active; Activity [20]: Active
CN(Cc1ccc(OCCCOc2ccc(CC(=O)OCc3ccc(CO[N+](=O)[O-])cc3)cc2)cc1)CC(O)(Cn1cncn1)c1ccc(F)cc1F (centres undefined)	1 µg/mL (≈ 1.37 µM)	1 µg/mL (≈ 1.37 µM)	0.5 µg/mL (≈ 0.683 µM)	32 µg/mL (≈ 43.7 µM)			> 50%	inactive	100%	Active	25%	100%	50%	10.7%	Dose-Dependent Effect	Metabolite_Detected	50.9%	4.75%	33.6%	Activity [27]: Active; Activity [32]: Active
CN(Cc1ccc(OCCCOc2ccc(CC(=O)OCCO[N+](=O)[O-])cc2)cc1)CC(O)(Cn1cncn1)c1ccc(F)cc1F (centres undefined)	1 µg/mL (≈ 1.53 µM)	1 µg/mL (≈ 1.53 µM)	0.125 µg/mL (≈ 0.191 µM)	> 64 µg/mL	Unstable	Unstable	> 50%	inactive	100%	Active	25%	100%	50%	23.7%	Dose-Dependent Effect	Metabolite_Detected	44.5%	5.31%	26.5%	Activity [36]: Active; Activity [37]: Active; Activity [38]: Active; inhibition [39]: inactive; Activity [40]: Active; Activity [41]: Dose-Dependent Effect; Activity [42]: Active; Activity [43]: Active; Activity [44]: Active; Activity [45]: Active; Activity [46]: Active
